# “Also recorded” adds a separate entry of the source.
# Assays:
# Format in all cases: physicochemical
# [1] = Fluorescence color of D1 in acetonitrile solution with and without metal ions under UV 365 nm (FIG. 1); details: D1 0.004 M
# Experimental: FIG. 1 is a set of pictures showing the change in color of derivative compound D1 in the absence and presence of various metal ions (Mg^2+, Sr^2+, Ca^2+, Cd^2+, Zn^2+, H^+) in solution. The solvent was acetonitrile, the concentration of D1 was 0.004 M, and the metal ion concentration was 0.04 M. The metal ions are added as perchlorates or acetates. The solutions were exposed to UV light having an excitation wavelength of 365 nm.
# With no metal, the D1 solution was blue. With Mg^2+, the solution was a blue-green color. With Sr^2+, the solution was a green-blue color. With Ca^2+, the solution was a green color. With Cd^2+, the solution was an olive green color. With Zn^2+, the solution was a yellow-orange color. With H^+, the solution was a red color.
# [2] = Fluorescence color of D1 in acetonitrile solution with one equivalent of metal perchlorate under UV 365 nm (FIG. 4)
# Experimental: FIG. 4 is a set of pictures showing the change in color of derivative compound D1 in the absence and presence of various metal ions (Ca^2+, Zn^2+, H^+, Pb^2+) in solution (perchlorate salts), both under ordinary light and under UV light (365 nm). The solvent was acetonitrile, the concentration of D1 was 0.0001 M, and one equivalent of the metal perchlorate salt was added. For H^+, an aluminum perchlorate salt was used, which produced acid (H^+) that protonated the ligand.
# Under UV light, the D1 solution alone is blue. With Ca(II), the solution is green. With Zn(II), the solution is yellow-orange. With Al(III) perchlorate, the solution is red. This red color resulted from an unexpected hydrolysis reaction that produced acid (H^+). The protonated ligand provided the red color. With Pb(II), the solution is black, i.e. the blue color that would other be visible has been quenched.
# [3] = Normalized emission spectra of D1 (L) and complexes in the solid state (FIG. 23)
# Excerpt: The y-axis is luminescence intensity, and the x-axis is wavelength in nanometers. The free ligand L had maximum emission at 457 nm. The L+Ca complex had maximum emission at 519 nm. The L+Zn complex had maximum emission at 556 nm. Al/H^+ complex had maximum emission at 651 nm. This latter complex is a protonated ligand obtained by using aluminum perchlorate, which produced acid in situ.
# The curve labeled Al/H+(N) was obtained by using protonated ligand obtained by treating the ligand with aluminum perchlorate.
# [4] = Normalized emission spectra of D1 (L) and complexes in dry acetonitrile (FIG. 22); details: D1 0.00013 M, metal ion 0.00012 M
# Experimental: The concentration of D1 was 0.00013 M, and the metal ion concentration was 0.00012 M. The metal ions are added as perchlorates or acetates. The y-axis is luminescence intensity, and the x-axis is wavelength in nanometers. The free ligand L had maximum emission at 470 nm. The L+Ca(II) complex had maximum emission at 526 nm. The L+Zn(II) complex had maximum emission at 581 nm. The L+trifluoroacetate complex had maximum emission at 592 nm. The L+H^+ complex had maximum emission at 691 nm. The L+H^+ complex was formed using aluminum chloride dissolved in TFA and diluted with dry MeCN, and it is likely that HCl was produced in situ, and that this is protonating the ligand.
# [5] = Fluorescence color in the solid state with and without metal ions or acids under UV 365 nm (FIGS. 2, 5, 6, 7, 24, 25)
# Excerpt: FIG. 2 is a set of pictures showing the change in color of derivative compound D1 in the absence and presence of various metal ions (Ca^2+, Sr^2+, Cd^2+, Zn^2+, Ba^2+, Ha^+, Hb^+, Ni^2+) in the solid state. The sample labeled Ha^+ was isolated from a KOH/ethanol solution after treatment with trifluoroacetic acid (TFA). The sample labeled Hb^+ was obtained by using aluminum perchlorate, which produced acid (H^+) due to an unexpected hydrolysis reaction with the medium.
# FIG. 5 is a set of pictures showing the change in color of derivative compound D1 in the absence and presence of various metal ions or acids (Ca^2+, Zn^2+, H^+, Pb^2+) in the solid state, both under ordinary light and under UV light (365 nm). Perchlorate salts were used. When the aluminum salt was used, an unexpected hydrolysis produced acid (H^+) which protonated the ligand.
# FIG. 6 is a set of pictures showing the change in color of derivative compound D1 in the absence and presence of various metal ions or acids (H^+, Co^2+, Ni^2+, Cu^2+) in the solid state, both under ordinary light and under UV light (365 nm). Perchlorate salts were used.
# FIG. 7 is a set of pictures showing the change in color of derivative compound D1 in the absence and presence of various metal ions or acids (AgNO3, Hg^2+, Pb^2+) and of the free compound D7 (no metal ion) in the solid state, both under ordinary light and under UV light (365 nm).
# FIG. 24 is a set of pictures showing the change in color of complexes of D1 with perchlorate salts of various metal ions (Ca^2+, Sr^2+, Cd^2+) in the solid state, both under ordinary light and under UV light (365 nm).
# FIG. 25 is a set of pictures showing the change in color of complexes of D1 with salts of various metal ions (Zn^2+, Ba^2+, Ha^+, Hb^+) in the solid state, both under ordinary light and under UV light (365 nm). The zinc and barium are perchlorate salts. The complex labeled “From KOH/EtOH/TFA” was obtained from a solution of KOH and ethanol upon addition of TFA. It is unclear what is causing the orange color, but it is most likely acid, therefore the label “Ha^+”. The HClO4 complex was obtained by using aluminum perchlorate, which produced acid (H^+) that protonated the ligand.
# With no metal, the D1 powder was blue. With Ca^2+, the powder was a blue-green color. With Sr^2+, the powder was a green color. With Cd^2+, the powder was a yellow-green color. With Zn^2+, the powder was a yellow color. With Ba^2+, the powder was a dark yellow color. […] Powder isolated from solutions containing AlCl3 or Al(ClO4)3 was a red color. […] With Ni^2+, the powder was black (i.e. fluorescence was quenched).
# FIG. 5 is a set of pictures showing fluorescence of D1 in the solid state, under ordinary light (top row) and under UV light (365 nm) (bottom row). In column A, the free ligand sample (i.e. no metal ions) is blue. In column B with Ca(II), the powder is green. In column C with Zn(II), the powder is yellow. In column D with Al(III), the powder is red. Again, this appears to be due to acid (H^+). In column E with Pb(II), the powder is non-fluorescent.
# FIG. 6 is a set of pictures showing fluorescence of D1 in the solid state, under ordinary light (top row) and under UV light (365 nm) (bottom row). In the first column ligand treated with La(III) perchlorate produced a powder that fluoresces red. […] In the second column with Co(II), the powder is non-fluorescent. In the third column with Ni(II), the powder is non-fluorescent. In the fourth column with Cu(II), the powder is non-fluorescent.
# FIG. 7 is a set of pictures showing fluorescence of D1 in the solid state, under ordinary light (top row) and under UV light (365 nm) (bottom row). In the first column with silver nitrate (AgNO3), the powder is non-fluorescent. […] In the third column with Pb(II), the powder is non-fluorescent. In the fourth column, the free compound D7 is shown, and is non-fluorescent. […]
# [6] = Fluorescent properties of L4 in water/chloroform two-layer vials with metal ions and acid (FIG. 8)
# Excerpt: FIG. 8 is a set of pictures showing the fluorescent properties of compound L4 in two different solvents (water and chloroform) in the presence of different metal ions o and acid (NaCl, CaCl2), HCl) under ordinary light and under UV light (365 nm). The concentration of L4 was 0.00032 M. Vial #2 used aqueous sodium chloride, Vial #3 included aqueous calcium chloride, and Vial #4 included dilute hydrochloric acid.
# FIG. 8 is a set of pictures showing the fluorescent properties of compound L4 in two different solvents (water and chloroform) under ordinary light and under UV light (365 nm). Vial #1 contains only L4, Vial #2 contains sodium chloride, Vial #3 contains calcium chloride, and Vial #4 contains hydrochloric acid. The two layers in each vial were mixed, then allowed to separate and observed. […] There is no reaction to sodium in Vial #2. […] It is believed that this migration will only occur with a metal ion of the proper size and sufficiently high ionic charge. […] Interference from acid is, therefore, not expected to cause false positive results.
smiles,measurement,setting,value
"COc1cccc2cc3c(nc12)-c1nc2c(OC)cccc2cc1CC3 [Compound D1, 8,8′-Dimethoxy-3,3′-dimethylene-2,2′-biquinoline]",color of solution,[1]; Ca^2+ 0.04 M,green
same,color of solution,[1]; Cd^2+ 0.04 M,olive green
same,color of solution,[1]; H^+,red
same,color of solution,[1]; Mg^2+ 0.04 M,blue-green
same,color of solution,[1]; Sr^2+ 0.04 M,green-blue
same,color of solution,[1]; Zn^2+ 0.04 M,yellow-orange
same,color of solution,[1]; no metal,blue
same,color of solution under UV light,[2]; D1 0.0001 M alone,blue
same,color of solution under UV light,"[2]; D1 0.0001 M, Al(III) perchlorate (produced acid H^+, protonated ligand)",red
same,color of solution under UV light,"[2]; D1 0.0001 M, one equivalent Ca(II) perchlorate",green
same,color of solution under UV light,"[2]; D1 0.0001 M, one equivalent Pb(II) perchlorate",black
same,color of solution under UV light,"[2]; D1 0.0001 M, one equivalent Zn(II) perchlorate",yellow-orange
same,maximum emission,[3],457 nm
same,maximum emission,[4],470 nm
same,fluorescence of powder,[5]; free compound (no metal ions),blue
same,fluorescence of powder,"[5]; from AlCl3 or Al(ClO4)3 (acid H^+, protonated ligand; Hb^+/HClO4)",red
same,fluorescence of powder,[5]; isolated from ethanolic KOH treated with TFA (Ha^+),orange
same,fluorescence of powder,"[5]; treated with La(III) perchlorate (acid H^+, protonated ligand)",red
same,fluorescence of powder,[5]; with Ca^2+,blue-green
same,fluorescence of powder,[5]; with Cd^2+,yellow-green
same,fluorescence of powder,[5]; with Co(II),non-fluorescent
same,fluorescence of powder,[5]; with Cu(II),non-fluorescent
same,fluorescence of powder,[5]; with Hg(II),barely fluoresces
same,fluorescence of powder,[5]; with Ni^2+,black; also recorded: non-fluorescent
same,fluorescence of powder,[5]; with Pb(II),non-fluorescent
same,fluorescence of powder,[5]; with Sr^2+,green
same,fluorescence of powder,[5]; with Zn^2+,yellow
same,fluorescence of powder,[5]; with silver nitrate (AgNO3),non-fluorescent
"CCCCc1c2c(nc3c1CCc1cc4cccc(OCC(=O)OC)c4nc1-3)-c1nc3c(OCC(=O)OC)cccc3cc1CC2 [Compound L4, 8-butyl-1,15-bis(methoxycarbonylmethoxy)-diquinolino[2,3-c:3′,2′-h]-6,7,9,10-tetrahydroacridine]",layer in which the compound is present,"[6]; Vial #1, only L4 0.00032 M",chloroform layer
same,response to sodium,"[6]; Vial #2, aqueous sodium chloride, L4 0.00032 M",no reaction
same,migration of the complex between layers,"[6]; Vial #3, aqueous calcium chloride",migrated to the water layer
same,fluorescent response,"[6]; Vial #3, aqueous calcium chloride (Ca^2+), UV 365 nm",intense blue
same,fluorescence,"[6]; Vial #4, dilute hydrochloric acid, UV 365 nm",green

# — US11168249B1, “Luminescent polydentate polycyclic compounds for metal ions” (priority 2012, dated 2021)
